“And” between values parts separate entries of the source, which are not always exact repeats. Equal values may be shown once.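 Assay format: 96-well plates, 48-hour exposure. The concentration for 50% growth inhibition is given as GI50. Definition used: TGI = concentration required for complete inhibition of growth.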

What all share (assay): NCI tumour cell line growth inhibition, 48 h
Test [1] deals with A549 NSCLC.
The test system of test [2] is ACHN renal.
Test [3] has as its system CCRF-CEM leukemia.
Test [4] has as its system HOP-62 NSCLC.
The subject of test [5] is K-562 leukemia.
For test [6], the system named is MALME-3M melanoma.
Test [7] has as its system MCF7 breast.
For test [8], the system named is MDA-MB-435.
The subject of test [9] is PC-3 prostate.
In test [10] the test system is RXF 393 renal.
The subject of test [11] is SR leukemia.
Test [12] deals with T-47D breast.
Test [13] deals with U251 CNS.
Test [14] relates to UACC-257 melanoma.

Consider `Cn1c(N/N=C/c2ccccc2)nc(-c2ccc3c(c2)OCO3)c(C#N)c1=O`, for which the TGI in test [1], in test [2], in [3], in test [4], in test [5] and in [6] was > 100 µM throughout. Also, the TGI in [7], in test [8], in test [9], in test [10], in test [11] and in test [12] was > 100 µM each time. Further, the TGI in test [13] and in [14] was > 100 µM each time.

On to `CCN(CC)CCNc1c2ccccc2nc2cccc([N+](=O)[O-])c12`, for which the TGI in [1] is 0.018 µM and 0.0391 µM; in test [2] it was 0.0184 µM and 0.0468 µM; in test [3], 0.48 µM; in test [4], 0.0164 µM; in test [5], 0.121 µM; in test [6], 0.0231 µM and 0.0287 µM. The TGI in test [7] is 0.0063 µM; in test [8], 0.00323 µM; in [9], 0.0122 µM; in test [10], 0.0351 µM and 0.0112 µM; in [11], 0.0888 µM; in [12] it was 0.0661 µM. Also, the TGI in test [13] is 0.0775 µM; in test [14] it was 0.0502 µM and 0.065 µM. The figures for the GI50 in [6] and in test [14] were 0.013 µM and 0.022 µM, respectively.

Turning to `CC12NC(=C(C#N)C#N)C(C#N)=C3NC(N)=C(C#N)C(=C31)Oc1ccccc12` (configuration not stated), the TGI was > 100 µM in test [1]; > 100 µM in [2]; > 100 µM in [3]; > 38.3 µM in test [4]; > 100 µM in test [5]; > 100 µM in [6]. Moreover, the TGI in test [7] is > 100 µM; in [8], > 100 µM; in [9], > 100 µM; in [10] it was 6.76 µM; in [11], > 100 µM; in test [12], > 100 µM. In addition, the TGI in test [13] and in test [14] was > 100 µM in each case.

Take `COc1ccccc1N1CCN(CCCCNC(=O)c2ccc([N+](=O)[O-])o2)CC1`: the TGI is 19.5 µM in test [1]; 25.2 µM in test [2]; 58.2 µM in test [3]; 16.5 µM in [4]; > 60.5 µM in [5]; 7.94 µM in test [6]. Besides, the TGI is 22.2 µM in [7]; 12 µM in [8]; 39.8 µM in [9]; 25.2 µM in [10]; > 58.3 µM in test [11]; 40.3 µM in test [12]. The TGI was determined as 24.6 µM in test [13] and 13.2 µM in test [14].

On to `O=C1CC(c2ccc(Cl)cc2)C2(C(=O)NC(=S)NC2=O)C(c2ccc(Cl)cc2)C1` (configuration not stated), for which the TGI in [1] is 73 µM; in test [2] it was > 100 µM; in test [3], 75.4 µM; in test [4], 54.7 µM; in test [5] it was 74.1 µM; in test [6], 52.1 µM. Also, the TGI was 32.1 µM in test [7]; 39.9 µM in test [8]; 55.1 µM in test [9]; 29.4 µM in [10]; > 100 µM in test [11]; 74.1 µM in test [12]. For the same compound, the TGI in test [13] turned out to be 79.7 µM; in test [14], 37.6 µM.

In the case of `Cc1cccc2c(N)c3cccc(C(=O)NCC[N+](C)(C)Cc4ccc([N+](=O)[O-])n4C)c3nc12`, the TGI in [1] is > 52.2 µM; in test [2], 56.1 µM; in test [3], 41.8 µM; in test [4] it was 61.7 µM; in [5], > 31.6 µM; in test [6], 41.3 µM. The TGI in test [7] was > 62.5 µM; in [8], > 85.2 µM; in test [9] it was > 75.2 µM; in test [10] it was > 72.7 µM; in test [11] it was 36.6 µM; in test [12], > 85.9 µM. Besides, the TGI in test [13] was 63.4 µM; in test [14], > 80.9 µM.

For the compound `O=[N+]([O-])c1cc(Br)cc2cc(Cl)cnc12`, the TGI in test [1], in [2], in test [3], in test [4], in test [5] and in test [6] was > 100 µM each time. Besides, the TGI in [7], in test [8], in test [9], in test [10], in [11] and in [12] was > 100 µM in each case. Further, the TGI in test [13] and in [14] was > 100 µM each time.

For the compound `COc1ccccc1-n1cnc2c1NC(C)(C)N=C2C(N)=O`, the TGI in test [1], in test [2], in test [3], in [4], in test [5] and in test [6] was > 100 µM throughout. Also, the TGI in test [7], in [8], in test [9], in [10], in [11] and in [12] was > 100 µM each time. The TGI in test [13] and in [14] was > 100 µM each time.

As to `O=c1oc2ccc([N+](=O)[O-])cc2nc1/C=C(\O)c1ccccc1`, the TGI in test [1], in [2], in test [3], in test [4], in [5] and in test [6] was > 100 µM each time. In addition, the TGI in test [7], in test [8], in test [9], in [10], in [11] and in test [12] was > 100 µM in each case. Besides, the TGI in [13] and in test [14] was > 100 µM throughout.

For the compound `COc1ccc(/C=C2/N=C(N/N=C\C(O)C(O)C(O)CO)NC2=O)cc1` (configuration not stated), the TGI in test [1], in test [2], in test [3], in test [4], in test [5] and in [6] was > 100 µM throughout. In addition, the TGI in [7], in [8], in test [9], in [10], in test [11] and in test [12] was > 100 µM each time. Moreover, the TGI in test [13] and in [14] was > 100 µM throughout. The GI50 in [4] is > 100 µM and 49.6 µM; in test [5] it was 33 µM; in [9], > 100 µM and 39.3 µM; in test [12] it was 87.7 µM and 33.2 µM.

Take `COC(=O)[C@H](CNC(=O)/C=C/c1ccc(OC(C)=O)c(OC(C)=O)c1)NC(=O)/C=C/c1ccc(OC(C)=O)c(OC(C)=O)c1`: the TGI in test [1], in [2], in test [3], in test [4], in [5] and in test [6] was > 100 µM in each case. Moreover, the TGI in test [7], in [8], in test [9], in test [10], in test [11] and in test [12] was > 100 µM in each case. For the same compound, the TGI in [13] and in test [14] was > 100 µM in each case.

With `CC(C)C[S+]1C2=C([O-])CC(C)(C)CC2=Nc2ccccc21` (configuration not stated), the TGI in test [1], in [2], in test [3], in [4], in test [5] and in test [6] was > 100 µM each time. Also, the TGI was > 100 µM in test [7]; > 100 µM in test [8]; > 100 µM in [9]; > 100 µM in [10]; 75.8 µM in [11]; > 100 µM in test [12]. Besides, the TGI in test [13] and in test [14] was > 100 µM in each case.

With `O=C1c2ccccc2N=C(c2cc3c(cc2Cl)Sc2nccn2S3(=O)=O)OS(=O)(=O)N1c1ccccc1`, the TGI was > 100 µM in test [1]; > 100 µM in [2]; 41.7 µM in test [3]; 76.2 µM in test [4]; 74.5 µM in [5]; > 100 µM in [6]. Also, the TGI in [7] was 81.5 µM; in test [8], 51.4 µM; in test [9], > 100 µM; in test [10] it was 84.7 µM; in test [11], 26.2 µM; in test [12] it was > 100 µM. In addition, the TGI in test [13] and in [14] was > 100 µM throughout.

Regarding `O=C(O)c1cc(N=Nc2ccc([N+](=O)[O-])cc2)ccc1O`, the TGI in [1], in [2], in [3], in test [4], in test [5] and in test [6] was > 100 µM in each case. The TGI was 87.1 µM in [7]; > 100 µM in test [8]; > 100 µM in [9]; > 100 µM in [10]; > 100 µM in [11]; > 100 µM in test [12]. Besides, the TGI came out at 68.4 µM in test [13] and 74.7 µM in test [14].

With `Cc1sc2c(c1C)C(=O)c1cccn1-2`, the TGI in test [1], in [2], in test [3], in test [4], in test [5] and in test [6] was > 100 µM in each case. Besides, the TGI in [7], in [8], in test [9], in test [10], in test [11] and in [12] was > 100 µM each time. The TGI in [13] and in [14] was > 100 µM in each case.

`CCCNC1=C2C[C@@H](C)C[C@@H](OC)[C@@H](OC(=O)CCCN)[C@H](C)/C=C(\C)[C@@H](OC(N)=O)[C@H](OC)/C=C\C=C(/C)C(=O)NC(=CC1=O)C2=O`: the TGI in test [1] is 40.6 µM; in test [2], 37.6 µM; in test [3], 6.8 µM; in [4], 31.3 µM; in [5] it was > 20.9 µM; in test [6], 28.4 µM. For the same compound, the TGI in test [7] was 31.4 µM; in [8], 32.2 µM; in test [9] it was 26.9 µM; in [10], 33.3 µM; in [11], > 23.8 µM; in test [12], 28.5 µM. Further, the TGI in [13] was > 35 µM; in test [14] it was 12 µM.

Turning to `COc1ccc2c(c1)CC[C@@H]1[C@@H]2CC[C@]2(C)/C(=N/OCCN3CCCC3)CC[C@@H]12`, the TGI was determined as 7.7 µM in [1]; 15.5 µM in [2]; 3.67 µM in [3]; 4.67 µM in test [4]; 2.58 µM in test [5]; 3.17 µM in test [6]. Also, the TGI came to 8.92 µM in test [7]; 2.43 µM in test [8]; 13.5 µM in test [9]; 4.16 µM in test [10]; 4.49 µM in test [11]; 9.64 µM in [12]. The TGI in test [13] came to 10.4 µM; in test [14], 3.81 µM.

As for `c1ccc(-c2cnc(SC(c3ccccc3)c3ccccc3)[nH]2)cc1`, the TGI in test [1] is > 100 µM; in test [2], > 100 µM; in test [3], > 100 µM; in [4], > 100 µM; in test [5], > 100 µM; in [6], 73.9 µM. In addition, the TGI is 74.7 µM in [7]; > 100 µM in test [8]; 84.7 µM in test [9]; 78.5 µM in test [10]; 64.3 µM in [11]; 54.7 µM in test [12]. The TGI in test [13] was > 100 µM; in [14], 55.5 µM.

As to `CCOC(=O)Oc1cc2ccsc2c2c1c1ccccc1n2C(=O)OCC`, the TGI in [1] was > 100 µM; in test [2] it was 98.1 µM; in test [3], > 100 µM; in test [4], > 100 µM; in test [5], > 100 µM; in test [6], > 100 µM. For the same compound, the TGI in [7] is > 100 µM; in [8], > 100 µM; in test [9] it was > 100 µM; in [10], 45.8 µM; in [11] it was > 100 µM; in [12], > 100 µM. Also, the TGI in test [13] and in test [14] was > 100 µM in each case.
